Measured values as given in patent US5262521A (SRI International, priority 1991, dated 1993).
Read-outs that look alike come from different tables or passages of the source. *1 amine or outer side, *2 acyl side, *3 side chain or, on linkers, in order; H or OH if unused. Where a SMILES comes first, the peptide text is derived from it. [ ]: non-standard residue; d: D form. The star is where a group is joined. Sta = CC(C)C[C@H](N)[C@@H](O)CC(=O)O; Isovaleryl = CC(C)CC(=O)*; CO = O=C([*:1])[*:2]

Test system: atrial peptide-degrading enzyme (ADE)
Test: Inhibition of ADE activity (AcAPI production from 50 μM AcAPII, HPLC)
Type: biochemical, bovine
Description: The concentration of enzyme and AcAPII were chosen so that approximately 80% of the AcAPII was degraded in the absence of inhibitor. The production of AcAPI was determined by integration of the AcI peak, and percent inhibition by the inhibitors was calculated.
(e.) Enzyme Inhibitor Testing: To further characterize ADE, the extent of inhibition by several known peptidase inhibitors was determined.

[1] = inhibitor 0.1 mM, 50 μM AcAPII, 1 hour, 37° C.
[2] = inhibitor 1 mM, 50 μM AcAPII, 1 hour, 37° C.
[3] = inhibitor 5 mM, 50 μM AcAPII, 1 hour, 37° C.

CC(C)C[C@H](NC(=O)[C@H]1O[C@@H]1C(=O)O)C(=O)NCCCCN=C(N)N (relative stereo) [E64, trans-Epoxysuccinyl-L-leucylamido-(4-guanidino)butane]
Percent Inhibition of ADE [1]: 0%

c1cnc2c(c1)ccc1cccnc12 [1,10-Phenanthroline]
Inhibition of ADE, in words: inhibited activity to a slightly lesser extent | Percent Inhibition of ADE [2]: 72%

CC(C)C[C@H](NC(=O)[C@@H](N)CO)C(=O)N[C@@H](CCCNC(=N)N)C(=O)N[C@@H](CCCNC(=N)N)C(=O)N[C@@H](CO)C(=O)N[C@@H](CO)C(=O)N[C@H](C)C(=O)NCC(=O)N[C@H](C)C(=O)N[C@@H](CC(N)=O)C(=O)N[C@@H](CO)C(=O)N[C@@H](Cc1ccccc1)C(=O)N[C@@H](CCCNC(=N)N)C(=O)N[C@@H](Cc1ccc(O)cc1)C(N)=O [(I), Ser-Leu-Arg-Arg-Ser-Ser-DAla-Gly-DAla-Asn-Ser-Phe-Arg-Tyr-NH2] (H-SLRRSS[dA]G[dA]NSFRY-NH2)
% Inhibition At 0.1 mM (Table 10): 46%

CC(C)C[C@H](NC(=O)[C@@H](N)CO)C(=O)N[C@@H](CCCNC(=N)N)C(=O)N[C@@H](CCCNC(=N)N)C(=O)N[C@@H](CO)C(=O)N[C@@H](CO)C(=O)N[C@H](C)C(=O)NCC(=O)N[C@H](C)C(=O)N[C@@H](CC(N)=O)C(=O)N[C@@H](CO)C(=O)N[C@H](Cc1ccccc1)C(=O)N[C@@H](CCCNC(=N)N)C(=O)N[C@@H](Cc1ccc(O)cc1)C(N)=O [(II), Ser-Leu-Arg-Arg-Ser-Ser-DAla-Gly-DAla-Asn-Ser-DPhe-Arg-Tyr-NH2] (H-SLRRSS[dA]G[dA]NS[dF]RY-NH2)
% Inhibition At 0.1 mM (Table 10): 28%

CC(C)C[C@H](NC(=O)[C@@H](N)CO)C(=O)N[C@@H](CCCNC(=N)N)C(=O)N[C@@H](CCCNC(=N)N)C(=O)N[C@@H](CO)C(=O)N[C@@H](CO)C(=O)N[C@H](C)C(=O)NCC(=O)N[C@H](C)C(=O)N[C@@H](CC(N)=O)C(=O)N[C@H](CO)C(=O)N[C@@H](Cc1ccccc1)C(=O)N[C@@H](CCCNC(=N)N)C(=O)N[C@@H](Cc1ccc(O)cc1)C(N)=O [(III), Ser-Leu-Arg-Arg-Ser-Ser-DAla-Gly-DAla-Asn-DSer-Phe-Arg-Tyr-NH2] (H-SLRRSS[dA]G[dA]N[dS]FRY-NH2)
% Inhibition At 0.1 mM (Table 10): 22%

CC(C)C[C@H](NC(=O)[C@@H](N)CO)C(=O)N[C@@H](CCCNC(=N)N)C(=O)N[C@@H](CCCNC(=N)N)C(=O)N[C@@H](CO)C(=O)N[C@@H](CO)C(=O)N[C@H](C)C(=O)NCC(=O)N[C@H](C)C(=O)N[C@@H](CC(N)=O)C(=O)N[C@@H](CS)C(=O)N[C@@H](Cc1ccccc1)C(=O)N[C@@H](CCCNC(=N)N)C(=O)N[C@@H](Cc1ccc(O)cc1)C(N)=O [(IV), Ser-Leu-Arg-Arg-Ser-Ser-DAla-Gly-DAla-Asn-Cys-Phe-Arg-Tyr-NH2] (H-SLRRSS[dA]G[dA]NCFRY-NH2)
IC50 (Table 10): 32.5 µM | % Inhibition At 0.1 mM (Table 10): 68%

CC(C)C[C@H](NC(=O)[C@@H](N)CO)C(=O)N[C@@H](CCCNC(=N)N)C(=O)N[C@@H](CCCNC(=N)N)C(=O)N[C@@H](CO)C(=O)N[C@@H](CO)C(=O)N[C@H](C)C(=O)NCC(=O)N[C@H](C)C(=O)N[C@@H](CC(N)=O)C(=O)N[C@@H](CS)C(=O)N[C@H](Cc1ccccc1)C(=O)N[C@@H](CCCNC(=N)N)C(N)=O [(VI), Ser-Leu-Arg-Arg-Ser-Ser-DAla-Gly-DAla-Asn-Cys-DPhe-Arg-NH2] (H-SLRRSS[dA]G[dA]NC[dF]R-NH2)
% Inhibition At 0.1 mM (Table 10): 74%

CC(C)[C@H](NC(=O)[C@H](CCCNC(=N)N)NC(=O)N[C@@H](Cc1ccccc1)C(=O)O)C(=O)N[C@H](C=O)CCCNC(=N)N [Antipain] ({Phe-CO}-Arg-Val-Arg-aldehyde)
Percent Inhibition of ADE [1]: 0%

C[C@H](CS)C(=O)N1CCC[C@H]1C(=O)O [Captopril]
Inhibition of ADE, in words: slight inhibition | Percent Inhibition of ADE (inhibitor 0.2 mM, 50 μM AcAPII, 1 hour, 37° C.): 33%

CC(C)C[C@H](NC(=O)[C@@H](NC(=O)N[C@@H](Cc1ccccc1)C(=O)O)[C@@H]1CCN=C(N)N1)C(=O)N[C@H](C=O)Cc1ccccc1 [Chymostatin]
Percent Inhibition of ADE [1]: 8%

O=C(O)CN(CCN(CC(=O)O)CC(=O)O)CC(=O)O [EDTA, Ethylenediamine tetraacetic acid]
ADE activity after dialysis of the enzyme (enzyme dialyzed against 1 mM EDTA): totally abolished | Percent Inhibition of ADE [3]: 20%

CC(C)C[C@H](NC(=O)N[C@H](C(=O)N[C@@H](CCC(N)=O)C(=O)N[C@@H](C)C=O)[C@@H]1CCNC(=N)N1)C(=O)O [Elastinal]
Percent Inhibition of ADE [1]: 10%

O=S(=O)(O)c1cc[c]([Hg][OH])cc1 [Hydroxymercuriphenyl sulfonic acid]
Percent Inhibition of ADE [2]: 100%

NC(=O)CI [Iodoacetamide]
Percent Inhibition of ADE [2]: 10%

O=C(O)CI [Iodoacetic acid]
Percent Inhibition of ADE: 0

CC(=O)N[C@@H](CC(C)C)C(=O)N[C@@H](CC(C)C)C(=O)N[C@H](C=O)CCCNC(=N)N [Leupeptine]
Inhibition of ADE, in words: slight inhibition | Percent Inhibition of ADE [1]: 33%

CCN1C(=O)C=CC1=O [NEM, N-ethylmaleimide]
Inhibition of ADE, in words: inhibited | Percent Inhibition of ADE [3]: 97% | ADE activity inhibited by (text summary of Table 4): ~100%

O=S(=O)(F)Cc1ccccc1 [PMSF, Phenylmethylsulfonyl fluoride]
Percent Inhibition of ADE [2]: 8%

CC(C)CC(=O)N[C@H](C(=O)N[C@H](C(=O)N[C@@H](CC(C)C)[C@@H](O)CC(=O)N[C@@H](C)C(=O)N[C@@H](CC(C)C)[C@@H](O)CC(=O)O)C(C)C)C(C)C [Pepstatin] (Isovaleryl-VV[Sta]A[Sta]-OH)
Percent Inhibition of ADE (inhibitor 0.01 mM, 50 μM AcAPII, 1 hour, 37° C.): 0%

CC(C)C[C@H](NP(=O)(O)O[C@@H]1O[C@@H](C)[C@H](O)[C@@H](O)[C@H]1O)C(=O)N[C@@H](Cc1c[nH]c2ccccc12)C(=O)O [Phosphoramidon]
Inhibition of ADE, in words: not inhibited | Percent Inhibition of ADE (inhibitor 0.001 mM, 50 μM AcAPII, 1 hour, 37° C.): 0%

O=C(O)c1cc[c]([Hg][Cl])cc1 [p-Chloromercuribenzoate]
Percent Inhibition of ADE [2]: 95%
